Experimental findings from patent US10233328B2, “Sol-gel based matrix” (KØBENHAVNS UNIVERSITET, priority 2013, dated 2019) are described below.

A short description of data set [1]: Leakage of dye from ETEOS-GPTMS matrix into surrounding PBS (physical stability). In kind it is physicochemical. The settings on record: for Leaking: fluorescence Intensity (a.u.): PBS pH 7.0 surrounding coated glass slide. Here is the method:
The photostability was followed by constant illumination of the sensor spot with wavelength selected light from a xenon lamp. The physical stability was tested by immersing the sensor spot in low or high pH aqueous solution, and monitoring the fluorescence from the solution.
Table 2. Leaking of 5(6)-carboxyfluorescein (CF), DMQA-2, DAOTA-1, and 6-stearamido-fluorescein (AF18) from the ETEOS-GPTMS matrix given as fluorescence intensity measured from a PBS solution at pH 7 surrounding a glass slide coated with ETEOS-GPTMS-dye matrix using maximum sized slit widths at the emission and excitation sites of the spectrometer.
All the leakage data is compiled in table 2.

A short description of data set [2]: pH titration of sensor spots (pKa of the sensor). In kind it is physicochemical. The settings on record: dye in ETEOS-GPTMS matrix, Table 2. Here is the method:
To perform titrations rapidly a set-up employing an epi-fluorescence microscopy equipped with a halogen light source and an Ocean Optics spectrometer for detection. The sensor spot was attached to a homemade holder, which kept the spot in place in a large chamber filled with water, where pH was externally monitored with a pH meter. Alternatively the sensor spot was affixed on the wall of a cuvette and the titration was performed in a Perkin Elmer LS50B, controlling the pH between measurements.
The performance of the sensors is shown as titration curves in FIG. 4. It is clear that a pH-dependent sensor action is achieved for these two sensor systems.

Broadly, the pKa is the negative logarithm of the acid dissociation constant. High values mean a group that holds its proton tightly, low ones a group that gives up its proton readily. In the case of `CCCCCCCCCCCCCCCCCC(=O)Nc1ccc2c(c1)C1(OC2=O)c2ccc(O)cc2Oc2cc(O)ccc21` [AFC18, 6-stearamido-fluorescein], in data set [1] (leaking period 4 d), the “Leaking: fluorescence Intensity (a.u.)” value was 100 a.u. In data set [2], the pKa came out at 6.5.
Regarding 5(6)-carboxyfluorescein [CF], the “Leakage from ETEOS-GPTMS matrix (in words)” value in data set [1] (PBS pH 7.0) is listed as “extensive leakage”. Besides, the “Leaking: fluorescence Intensity (a.u.)” value in data set [1] (leaking period 2 h, half the slit widths used for DMQA-2 and DAOTA-1) is recorded as >>800 a.u. In data set [2], this compound had a pKa of 6.5.
